Test results from US20260137795A1, “EXATECAN IMMUNOCONJUGATES” (Immunome, Inc., priority 2023, published 2026).
Structures can show the parent of a compound that is named as a salt.

Columns and labels:
[1] = physchem; parameters: dose or concentration left out as unconfirmed; settings: PAMPA
[2] = system: Jeko-1; assay: CTG assay of payloads (CellTiter-Glo cell viability); type: cell-based
From the text: The CTG assay is a method of determining the number of viable cells in culture based on quantitation of the ATP present, an indicator of metabolically active cells. The cell assay requires the addition of a single reagent, Cell Titer Glo, in which cells are lysed and generation of a luminescent signal is produced. The luminescent signal is proportional to the amount of ATP present. The amount of ATP is directly proportional to the number of cells present in culture. For our assay, cells are ensured to be in log-phase for either Jeko-1 or MDA-MB-468. Cells are transferred to 96 wells and treated with compounds in three-fold serial dilution starting from […] (10 points dilution), for 72 h. Cell viability is analyzed with CellTiter-Glo® Luminescent Cell Viability Assay (Promega) following manufactures' instruction. Percentage of viable cells in each compound concentration is determined by normalizing with the luminescence of vehicle control and plotted into percentage of viability versus dose response curve by nonlinear fit in GraphPad Prism software.

[3] = Human liver microsome clearance (HLM CL); type: in vitro ADME; parameters: half-life: dose or concentration left out as unconfirmed; settings: for half-life: human, microsomes; for HLM Cl T1/2: human liver microsome clearance, 60 min incubation, NADPH
Description: Working solution is prepared by adding 5 μL of compound and control stock solution (10 mM in dimethyl sulfoxide, DMSO) to 495 μL of acetonitrile (ACN) (intermediate solution concentration: 100 μM, 99% CAN and 1% DMSO. The appropriate concentrations of microsome working solutions are prepared in 100 mM potassium phosphate buffer. After reaction plates containing mixtures of compound and microsomes are pre-incubated at 37° C., for 10 min. […] of 2 mM of NADPH and 2 mM of MgCl2 solution is added to start the reaction. The final concentrations of incubation medium are as follows: microsome-0.5 mg protein/mL, test compound/control […], NADPH—1 mM, MgCl2—1 mM, acetonitrile 0.99%, DMSO 0.01%. Incubations are performed at 37° C., for 60 min. Samples are taken out at T0, T5, T15, T30, T45 and T60, which is added intermediately to the ice-cold stop solution (acetonitrile with 200) ng/ml of tobutamide and labetalol as internal standard) (125 μl), shaken for 10 min, centrifuged at 4000 rpm for 20 min at 4° C. Analytical plates are analyzed by LCMS.
Human liver microsome clearance assay assess metabolism by the cytochrome P450 system (phase I enzymes). These enzymes oxidize substrates by incorporating oxygen atoms into hydrocarbons, thus causing the introduction of hydroxyl groups, or N- O- and S-dealkylation of substrates and forming more polar products easier to be cleared. Human hepatocyte clearance assay measures more broadly the overall cellular metabolism of the test compound (phase I and phase II enzyme pathways). Phase II enzymes catalyze the conjugation reaction of xenobiotic metabolites and charged species, such as glutathione, sulfate, glycine, or glucuronic acid to form even more polar compounds for easier clearance.

[4] = Human hepatocyte clearance (HHEP CL); type: in vitro ADME; parameters: half-life: dose or concentration left out as unconfirmed; settings: for half-life: both sexes, human; for HHEP Cl T1/2: human hepatocytes intrinsic clearance, 90 min incubation
Description: Suspensions of human hepatocytes (from 10 mixed gender human donors, final concentration 0.5×10^6 cell/mL) in Williams' E medium are incubated for 90 min with a test compound (0.90% acetonitrile and 0.10% DMSO, final concentration […]) and positive controls (7-Ethoxycoumarin, 7-Hydroxycoumarin, 0.90% acetonitrile and 0.10% DMSO, final concentration […]), with constant shaking at about 600 rpm at 37° C., in an incubator at 5% CO2 and 95% humidity. The total volume of incubation was 200 μL. A sample ([…]) is taken out at TO, 15, 30, 60 and 90 min, which is added intermediately to the ice-cold stop solution (acetonitrile with 200 ng/ml of tobutamide and labetalol as internal standard) (125 μl), and vortexed at 500 rpm for 10 min, centrifuged at 3220×g for 20 min at 4° C. Analytical plates are sealed and stored at 4° C., until LCMS analysis. Viability of hepatocytes at pre-incubation is determined to be 84.5%.

[5] = AC-SINS self-interaction (antibody developability); type: physicochemical; settings: FIG. 19
Description: Antibody developability was assessed by performing an AC-SINS assay and evaluating the potential for self-interaction.
An initial assessment of antibody developability was performed by AC-SINS to evaluate the potential for self-interaction (FIG. 19).

[6] = PAMPA (Parallel Artificial Membrane Permeability Assay); parameters: dose or concentration left out as unconfirmed; settings: pH 7.4

CC[C@@]1(O)C(=O)OCc2c1cc1n(c2=O)Cc2c-1nc1cc(F)c(C)c3c1c2[C@@H]([C@@H](CO)NC(C)C)CC3 (single isomer, unassigned) [Compound 17-113]
Papp ([1]; pH 5): 26.9 ×10⁻⁶ cm/s | Papp ([1]; pH 7.4): 9.7 ×10⁻⁶ cm/s | IC50 ([2]; Homo sapiens, JeKo-1, 72 h): 4.2 nM | half-life [3]: 0.533 h | half-life ([4]; hepatocytes): 2.42 h

CC[C@@]1(O)C(=O)OCc2c1cc1n(c2=O)Cc2c-1nc1cc(F)c(C)c3c1c2[C@@H](NC(=O)CO)CC3 [Dxd, reference compound]
IC50 ([2]; 72 h): 0.95 nM | HLM Cl T1/2 [3]: 1.67 h | HHEP Cl T1/2 [4]: >3.62 h

CC[C@@]1(O)C(=O)OCc2c1cc1n(c2=O)Cc2c-1nc1cc(F)c(C)c3c1c2[C@@H]([C@H](N)CO)CC3 (single isomer, unassigned) [Compound 16-105, hydrochloride]
Papp ([1]; pH 5): 0.07 ×10⁻⁶ cm/s | Papp ([1]; pH 7.4): 0.06 ×10⁻⁶ cm/s | IC50 ([2]; Homo sapiens, JeKo-1, 72 h): 10.2 nM | half-life [3]: > 2.42 h | half-life ([4]; hepatocytes): 1.87 h

CC[C@@]1(O)C(=O)OCc2c1cc1n(c2=O)Cc2c-1nc1cc(F)c(C)c3c1c2[C@@H]([C@H](CCO)NC(C)C)CC3 (single isomer, unassigned) [Compound 14-92]
Papp ([1]; pH 5): 17.7 ×10⁻⁶ cm/s | Papp ([1]; pH 7.4): 8.4 ×10⁻⁶ cm/s | IC50 ([2]; Homo sapiens, JeKo-1, 72 h): 1.7 nM | half-life [3]: 0.95 h | half-life ([4]; hepatocytes): > 3.62 h

CC[C@@]1(O)C(=O)OCc2c1cc1n(c2=O)Cc2c-1nc1cc(F)c(C)c3c1c2[C@H]([C@@H](N)CO)CC3 (single isomer, unassigned) [Compound 16-108, hydrochloride]
Papp ([1]; pH 7.4): 0.002 ×10⁻⁶ cm/s | IC50 ([2]; Homo sapiens, JeKo-1, 72 h): 8.3 nM | half-life [3]: 1.83 h | half-life ([4]; hepatocytes): 2.1 h

CC[C@@]1(O)C(=O)OCc2c1cc1n(c2=O)Cc2c-1nc1cc(F)c(C)c3c1c2[C@@H]([C@H](CO)NC(C)C)CC3 (single isomer, unassigned) [Compound 17-112]
Papp ([1]; pH 5): 14.4 ×10⁻⁶ cm/s | Papp ([1]; pH 7.4): 6.3 ×10⁻⁶ cm/s | IC50 ([2]; Homo sapiens, JeKo-1, 72 h): 17 nM | half-life [3]: 1.03 h | half-life ([4]; hepatocytes): > 3.62 h

CCc1c2c(nc3ccc(O)cc13)-c1cc3c(c(=O)n1C2)COC(=O)[C@]3(O)CC [SN-38, reference compound]
IC50 ([2]; 72 h): 0.92 nM | HLM Cl T1/2 [3]: 1.35 h | HHEP Cl T1/2 [4]: 1.28 h

CC[C@@]1(O)C(=O)OCc2c1cc1n(c2=O)Cc2c-1nc1cc(F)c(C)c3c1c2[C@H]([C@H](CO)NC(C)C)CC3 (single isomer, unassigned) [Compound 17-114]
Papp ([1]; pH 5): 18.3 ×10⁻⁶ cm/s | Papp ([1]; pH 7.4): 8 ×10⁻⁶ cm/s | IC50 ([2]; Homo sapiens, JeKo-1, 72 h): 1.9 nM | half-life [3]: 0.035 h | half-life ([4]; hepatocytes): 0.8 h

CC[C@@]1(O)C(=O)OCc2c1cc1n(c2=O)Cc2c-1nc1cc(F)c(C)c3c1c2[C@H]([C@H](N)CO)CC3 (single isomer, unassigned) [Compound 16-111, hydrochloride]
Papp ([1]; pH 5): 0.03 ×10⁻⁶ cm/s | Papp ([1]; pH 7.4): 0.04 ×10⁻⁶ cm/s | IC50 ([2]; Homo sapiens, JeKo-1, 72 h): 17.6 nM | half-life [3]: 1.72 h | half-life ([4]; hepatocytes): 2.22 h

CC[C@@]1(O)C(=O)OCc2c1cc1n(c2=O)Cc2c-1nc1cc(F)c(C)c3c1c2[C@H]([C@H](CCO)N(C)C)CC3 (single isomer, unassigned) [Compound 15-98]
Papp ([1]; pH 5): 27 ×10⁻⁶ cm/s | Papp ([1]; pH 7.4): 11.3 ×10⁻⁶ cm/s | IC50 ([2]; Homo sapiens, JeKo-1, 72 h): 0.25 nM | half-life [3]: 0.112 h | half-life ([4]; hepatocytes): 1.3 h

CC[C@@]1(O)C(=O)OCc2c1cc1n(c2=O)Cc2c-1nc1cc(F)c(C)c3c1c2[C@@H]([C@@H](CCO)N(C)C)CC3 (single isomer, unassigned) [Compound 15-97]
Papp ([1]; pH 5): 36.6 ×10⁻⁶ cm/s | Papp ([1]; pH 7.4): 15.7 ×10⁻⁶ cm/s | IC50 ([2]; Homo sapiens, JeKo-1, 72 h): 0.3 nM | half-life [3]: 0.6 h | half-life ([4]; hepatocytes): 1.88 h

CC[C@@]1(O)C(=O)OCc2c1cc1n(c2=O)Cc2c-1nc1cc(F)c(C)c3c1c2[C@@H]([C@@H](CCO)NC(C)C)CC3 (single isomer, unassigned) [Compound 14-93]
Papp ([1]; pH 5): 20.6 ×10⁻⁶ cm/s | Papp ([1]; pH 7.4): 9.2 ×10⁻⁶ cm/s | IC50 ([2]; Homo sapiens, JeKo-1, 72 h): 2.6 nM | half-life [3]: 0.767 h | half-life ([4]; hepatocytes): 3.08 h

CC[C@@]1(O)C(=O)OCc2c1cc1n(c2=O)Cc2c-1nc1cc(F)c(C)c3c1c2[C@@H]([C@H](CCO)N(C)C)CC3 (single isomer, unassigned) [Compound 15-96]
Papp ([1]; pH 5): 16.7 ×10⁻⁶ cm/s | Papp ([1]; pH 7.4): 15.6 ×10⁻⁶ cm/s | IC50 ([2]; Homo sapiens, JeKo-1, 72 h): 0.52 nM | half-life [3]: 1.6 h | half-life ([4]; hepatocytes): > 3.62 h

CC[C@@]1(O)C(=O)OCc2c1cc1n(c2=O)Cc2c-1nc1cc(F)c(C)c3c1c2[C@@H]([C@@H](N)CO)CC3 (single isomer, unassigned) [Compound 16-102, hydrochloride]
Papp ([1]; pH 7.4): 0.02 ×10⁻⁶ cm/s | IC50 ([2]; Homo sapiens, JeKo-1, 72 h): 27.7 nM | half-life [3]: 2.37 h | half-life ([4]; hepatocytes): 1.75 h

CC[C@@]1(O)C(=O)OCc2c1cc1n(c2=O)Cc2c-1nc1cc(F)c(C)c3c1c2[C@H]([C@@H](CCO)NC(C)C)CC3 (single isomer, unassigned) [Compound 14-95]
Papp ([1]; pH 5): 12.7 ×10⁻⁶ cm/s | Papp ([1]; pH 7.4): 6.6 ×10⁻⁶ cm/s | IC50 ([2]; Homo sapiens, JeKo-1, 72 h): 1.7 nM | half-life [3]: 0.483 h | half-life ([4]; hepatocytes): 1.42 h

CC[C@@]1(O)C(=O)OCc2c1cc1n(c2=O)Cc2c-1nc1cc(F)c(C)c3c1c2[C@H]([C@H](CCO)NC(C)C)CC3 (single isomer, unassigned) [Compound 14-94]
Papp ([1]; pH 5): 16.5 ×10⁻⁶ cm/s | Papp ([1]; pH 7.4): 7.5 ×10⁻⁶ cm/s | IC50 ([2]; Homo sapiens, JeKo-1, 72 h): 1.6 nM | half-life [3]: 0.112 h | half-life ([4]; hepatocytes): 1.13 h

Adalimumab
AC-SINS shift / self-interaction [5]: low shift

CC[C@@]1(O)C(=O)OCc2c1cc1n(c2=O)Cc2c-1nc1cc(F)c(C)c3c1c2[C@H]([C@@H](CCO)N(C)C)CC3 (single isomer, unassigned) [Compound 15-99]
Papp ([1]; pH 5): 14.9 ×10⁻⁶ cm/s | Papp ([1]; pH 7.4): 8.5 ×10⁻⁶ cm/s | IC50 ([2]; Homo sapiens, JeKo-1, 72 h): 0.32 nM | half-life [3]: 0.967 h | half-life ([4]; hepatocytes): 3.47 h

CC[C@@]1(O)C(=O)OCc2c1cc1n(c2=O)Cc2c-1nc1cc(F)c(C)c3c1c2[C@@H](N)CC3 [Exatecan]
Papp ([1]; pH 5): > 107 ×10⁻⁶ cm/s | IC50 ([2]; Homo sapiens, JeKo-1, 72 h): 0.4 nM | Papp [6]: 16.3 ×10⁻⁶ cm/s | half-life [3]: 1.25 h | half-life ([4]; hepatocytes in suspension, read-out: HHEP Cl T1/2): 2.38 h

CC[C@@]1(O)C(=O)OCc2c1cc1n(c2=O)Cc2c-1nc1cc(F)c(C)c3c1c2[C@H]([C@@H](CO)NC(C)C)CC3 (single isomer, unassigned) [Compound 17-115]
Papp ([1]; pH 5): 10.5 ×10⁻⁶ cm/s | Papp ([1]; pH 7.4): 4.8 ×10⁻⁶ cm/s | IC50 ([2]; Homo sapiens, JeKo-1, 72 h): 16 nM | half-life [3]: 0.1 h | half-life ([4]; hepatocytes): 1.5 h
